Source: the supplement of paper PMC10307832

Tests used:
Assay in all cases: relative viability (nuclei count vs DMSO), 5 days (fraction); higher = more cells survive
NCI-H322M = system: NCI-H322M
In short: (§1)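 Medians of duplicate plates are given as relative viability. That measure is the nuclei count in treated wells divided by the count in vehicle wells. Counts were taken on 4× images of lung cancer cell lines in 1536-well plates, 5 days after pin-tool dosing the day after seeding with one drug alone or a fixed anchor-drug dose plus five library-drug doses (not always all listed) in √10 steps.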

HCC-44 = system: HCC-44
In short: as §1

NCI-H1792 = system: NCI-H1792
In short: as §1

NCI-H2347 = system: NCI-H2347
In short: as §1

RERF-LC-KJ = system: RERF-LC-KJ
In short: as §1

NCI-H1944 = system: NCI-H1944
In short: as §1

SK-LU-1 = system: SK-LU-1
In short: as §1

NCI-H1755 = system: NCI-H1755
In short: as §1

NCI-H1793 = system: NCI-H1793
In short: as §1

ChaGo-K-1 = system: ChaGo-K-1
In short: as §1

NCI-H1666 = system: NCI-H1666
In short: as §1

NCI-H1395 = system: NCI-H1395
In short: as §1

NCI-H520 = system: NCI-H520
In short: as §1

CAL-12T = system: CAL-12T
In short: as §1

HCC-827 = system: HCC-827
In short: as §1

NCI-H3122 = system: NCI-H3122
In short: as §1

NCI-H358 = system: NCI-H358
In short: as §1

LU99A = system: LU99A
In short: as §1

NCI-H2126 = system: NCI-H2126
In short: as §1

LXF-289 = system: LXF-289
In short: as §1

LCLC-103H = system: LCLC-103H
In short: as §1

SMILES: Cc1cn(-c2cc(NC(=O)c3ccc(C)c(Nc4nccc(-c5cccnc5)n4)c3)cc(C(F)(F)F)c2)cn1 [Nilotinib] + CC(=O)Nc1cccc(-n2c(=O)n(C3CC3)c(=O)c3c(Nc4ccc(I)cc4F)n(C)c(=O)c(C)c32)c1 [Trametinib] (partner 0.02 µM)
- relative viability (NCI-H322M; first compound 0.001 µM): 0.538
- relative viability (NCI-H322M; first compound 0.003162 µM): 0.524
- relative viability (NCI-H322M; first compound 0.01 µM): 0.476
- relative viability (NCI-H322M; first compound 0.03162 µM): 0.613
- relative viability (NCI-H322M; first compound 0.1 µM): 0.465
- relative viability (HCC-44; first compound 0.001 µM): 0.951
- relative viability (HCC-44; first compound 0.003162 µM): 1.03
- relative viability (HCC-44; first compound 0.01 µM): 1.21
- relative viability (HCC-44; first compound 0.1 µM): 0.774
- relative viability (NCI-H1792; first compound 0.001 µM): 0.365
- relative viability (NCI-H1792; first compound 0.003162 µM): 0.491
- relative viability (NCI-H1792; first compound 0.01 µM): 0.446
- relative viability (NCI-H1792; first compound 0.03162 µM): 0.077
- relative viability (NCI-H1792; first compound 0.1 µM): 0.162
- relative viability (NCI-H2347; first compound 0.001 µM): 0.267
- relative viability (NCI-H2347; first compound 0.003162 µM): 0.23
- relative viability (NCI-H2347; first compound 0.01 µM): 0.234
- relative viability (NCI-H2347; first compound 0.03162 µM): 0.268
- relative viability (NCI-H2347; first compound 0.1 µM): 0.271
- relative viability (RERF-LC-KJ; first compound 0.001 µM): 0.79
- relative viability (RERF-LC-KJ; first compound 0.003162 µM): 0.985
- relative viability (RERF-LC-KJ; first compound 0.01 µM): 0.985
- relative viability (RERF-LC-KJ; first compound 0.03162 µM): 0.764
- relative viability (RERF-LC-KJ; first compound 0.1 µM): 0.811
- relative viability (NCI-H1944; first compound 0.001 µM): 0.378
- relative viability (NCI-H1944; first compound 0.003162 µM): 0.415
- relative viability (NCI-H1944; first compound 0.01 µM): 0.39
- relative viability (NCI-H1944; first compound 0.03162 µM): 0.383
- relative viability (NCI-H1944; first compound 0.1 µM): 0.322
- relative viability (SK-LU-1; first compound 0.001 µM): 0.436
- relative viability (SK-LU-1; first compound 0.003162 µM): 0.475
- relative viability (SK-LU-1; first compound 0.01 µM): 0.371
- relative viability (SK-LU-1; first compound 0.03162 µM): 0.361
- relative viability (SK-LU-1; first compound 0.1 µM): 0.385
- relative viability (NCI-H1755; first compound 0.001 µM): 0.745
- relative viability (NCI-H1755; first compound 0.003162 µM): 0.806
- relative viability (NCI-H1755; first compound 0.01 µM): 0.699
- relative viability (NCI-H1755; first compound 0.03162 µM): 0.64
- relative viability (NCI-H1755; first compound 0.1 µM): 0.556
- relative viability (NCI-H1793; first compound 0.001 µM): 0.403
- relative viability (NCI-H1793; first compound 0.003162 µM): 0.396
- relative viability (NCI-H1793; first compound 0.01 µM): 0.328
- relative viability (NCI-H1793; first compound 0.03162 µM): 0.239
- relative viability (NCI-H1793; first compound 0.1 µM): 0.251
- relative viability (ChaGo-K-1; first compound 0.001 µM): 0.824
- relative viability (ChaGo-K-1; first compound 0.003162 µM): 1.15
- relative viability (ChaGo-K-1; first compound 0.01 µM): 1.03
- relative viability (ChaGo-K-1; first compound 0.03162 µM): 0.804
- relative viability (ChaGo-K-1; first compound 0.1 µM): 0.869
- relative viability (NCI-H1666; first compound 0.001 µM): 0.843
- relative viability (NCI-H1666; first compound 0.003162 µM): 0.689
- relative viability (NCI-H1666; first compound 0.01 µM): 0.638
- relative viability (NCI-H1666; first compound 0.03162 µM): 0.766
- relative viability (NCI-H1666; first compound 0.1 µM): 0.746
- relative viability (NCI-H1395; first compound 0.001 µM): 0.988
- relative viability (NCI-H1395; first compound 0.01 µM): 1.19
- relative viability (NCI-H1395; first compound 0.03162 µM): 0.96
- relative viability (NCI-H1395; first compound 0.1 µM): 0.9
- relative viability (NCI-H520; first compound 0.001 µM): 0.612
- relative viability (NCI-H520; first compound 0.003162 µM): 0.747
- relative viability (NCI-H520; first compound 0.01 µM): 0.738
- relative viability (NCI-H520; first compound 0.03162 µM): 0.392
- relative viability (NCI-H520; first compound 0.1 µM): 0.39
- relative viability (CAL-12T; first compound 0.001 µM): 0.289
- relative viability (CAL-12T; first compound 0.003162 µM): 0.34
- relative viability (CAL-12T; first compound 0.01 µM): 0.261
- relative viability (CAL-12T; first compound 0.03162 µM): 0.283
- relative viability (CAL-12T; first compound 0.1 µM): 0.249
- relative viability (HCC-827; first compound 0.001 µM): 0.593
- relative viability (HCC-827; first compound 0.003162 µM): 0.523
- relative viability (HCC-827; first compound 0.03162 µM): 0.542
- relative viability (HCC-827; first compound 0.1 µM): 0.469
- relative viability (NCI-H3122; first compound 0.001 µM): 0.249
- relative viability (NCI-H3122; first compound 0.003162 µM): 0.303
- relative viability (NCI-H3122; first compound 0.03162 µM): 0.157
- relative viability (NCI-H3122; first compound 0.1 µM): 0.158
- relative viability (NCI-H358; first compound 0.001 µM): 0.134
- relative viability (NCI-H358; first compound 0.003162 µM): 0.143
- relative viability (NCI-H358; first compound 0.01 µM): 0.13
- relative viability (NCI-H358; first compound 0.03162 µM): 0.116
- relative viability (NCI-H358; first compound 0.1 µM): 0.128
- relative viability (LU99A; first compound 0.001 µM): 0.31
- relative viability (LU99A; first compound 0.003162 µM): 0.328
- relative viability (LU99A; first compound 0.01 µM): 0.332
- relative viability (LU99A; first compound 0.03162 µM): 0.296
- relative viability (LU99A; first compound 0.1 µM): 0.242
- relative viability (NCI-H2126; first compound 0.001 µM): 0.521
- relative viability (NCI-H2126; first compound 0.003162 µM): 0.647
- relative viability (NCI-H2126; first compound 0.01 µM): 0.647
- relative viability (NCI-H2126; first compound 0.03162 µM): 0.551
- relative viability (NCI-H2126; first compound 0.1 µM): 0.554
- relative viability (LXF-289; first compound 0.001 µM): 0.686
- relative viability (LXF-289; first compound 0.003162 µM): 0.699
- relative viability (LXF-289; first compound 0.01 µM): 0.701
- relative viability (LXF-289; first compound 0.03162 µM): 0.577
- relative viability (LXF-289; first compound 0.1 µM): 0.466
- relative viability (LCLC-103H; first compound 0.001 µM): 0.588
- relative viability (LCLC-103H; first compound 0.003162 µM): 0.773
- relative viability (LCLC-103H; first compound 0.01 µM): 0.75
- relative viability (LCLC-103H; first compound 0.03162 µM): 0.579
- relative viability (LCLC-103H; first compound 0.1 µM): 0.728
